From PMC6470589, “Contribution of Molecular Structure to Self-Assembling and Biological Properties of Bifunctional Lipid-Like 4-(N-Alkylpyridinium)-1,4-Dihydropyridines” (Pharmaceutics, 2019)
Several values for one entry are separate records, joined by “and”; a condition that tells them apart may be missing. Equal entries are not always repeated. Entries after “also recorded” stand apart in the source; their conditions may differ. Where two headings read alike, the source gives them in different places.

Columns and labels:
[1] = MTT cytotoxicity assay on MH-22A tumor cells, 72 h; format: cell-based, mouse; conditions: mouse, MH-22A hepatocarcinoma cells
Method: (§1) Tumor cell lines HT-1080 (human connective tissue fibrosarcoma) and MH-22A (mouse hepatocarcinoma) were used. All of the cells were obtained from the American Type Culture Collection ((ATCC,) Rockville, MD, USA). HT-1080 and MH-22A cells (4 × 10^4 cell/mL) were seeded in 96-well plates in Dulbecco’s modified Eagle’s medium (DMEM) containing 10% fetal bovine serum and cultivated for 72 h at 37 °C, 5% CO2 by exposure to different compounds concentrations (100 μg/mL, 25 μg/mL, 6.25 μg/mL, and 1.56 μg/mL). Cell viability was measured using 3-(4,5-dimethylthiazol-2-yl)-2,5-diphenyl-tetrazolium bromide (MTT) assay. In brief, after incubating with compounds, the culture medium was removed and fresh medium with 0.2 mg/mL MTT was added in each well of the plate. After incubation (3 h, 37 °C, 5% CO2), the medium with MTT was removed, and 200 μL of DMSO was added at once to each sample. The samples were tested at 540 nm on a Tecan multiplate reader Infinite1000 (Tecan Austria GmbH, Salzburg, Austria). The IC50 was calculated using the program Graph Pad Prism® 3.0.

[2] = test system: MH-22A (mouse hepatocarcinoma) cells; assay: MTT cytotoxicity assay on MH-22A tumor cells, 72 h; format: cell-based; conditions: MTT, 72 h; ne = no effect in the tested concentration (up to 100 μg/mL)
Method: as §1

[3] = Self-assembling properties by dynamic light scattering (DLS); format: physicochemical; conditions: for PDI ± SD, 1 Set: freshly prepared samples; for Zeta-Pot ± SD: freshly prepared samples in water, 0.5 mg/mL (1–7), 0.25 mg/mL (8–10), 0.1 mg/mL (11); for PDI ± SD, 2 Set: two weeks after the first set, samples stored at r.t.; for Stability of nanoparticles: two weeks of storage at r.t., DLS
Method: Samples of compounds for dynamic light scattering (DLS) studies were prepared by thin-film hydration method in an aqueous solution at a concentration of 0.5 mg/mL for compounds 1–7, 0.25 mg/mL for compounds 8–10, and 0.1 mg/mL for compound 11. A corresponding amount of compounds was weighted in a round-bottom flask and dissolved in chloroform; then, the organic solvent was removed in vacuo, and the residue was dried in high vacuo for 1 h. An appropriate amount of deionised water was added to each flask for the preparation of stock solutions with the above-mentioned concentrations. Samples were prepared by sonication using a bath-type sonicator (Cole Parmer Ultrasonic Cleaner 8891CPX (Vernon Hills, IL, USA)). Samples were sonicated for 60 min at 50 °C.
The DLS measurements of the nanoparticles in an aqueous solution were carried out on a Zetasizer Nano ZSP (Malvern Panalytical Ltd., Malvern, UK) instrument with Malvern Instruments Ltd. Software 7.12, using the following specifications—medium: water; refractive index: 1.33; viscosity: 0.8872 cP; temperature: 25 °C; dielectric constant: 78.5; nanoparticles: liposomes; refractive index of materials: 1.60; detection angle: 173°; wavelength: 633 nm. Data were analysed using the multimodal number distribution software that was included with the instrument. The measurements were performed in triplicate in order to check their reproducibility.

[4] = test system: six prokaryotic (bacteria) and one eukaryotic (yeast) microorganism species; assay: Toxicity screen, whole panel of microorganisms; format: cell-based; conditions: concentrations tested 10 to 0.001 mM
Method: An estimation of the toxicity of 4-(N-alkylpyridinium)-1,4-DHP derivatives 3, 6, 7, and 9–11 was performed using six prokaryotic (bacteria) and one eukaryotic (yeast) microorganism species according to the procedure elaborated by Suppi et al.. The microorganisms used in the study and their origin were: Bacillus subtilis subsp. spizizenii (ATCC® 6633™*, Microbiologics®, St Cloud, MN, USA), Escherichia coli (ATCC® 8739, Microbiologics®), Klebsiella pneumoniae (Latvian Microorganisms strain collection, LMKK, strain number 535, Riga, Latvia), Micrococcus luteus (LMKK, No. 25), Pseudomonas aeruginosa (NCTC 12924, Biosciences Ltd., Dublin, Ireland), Proteus mirabilis (LMKK, No 590), and Saccharomyces cerevisiae, CEN.PK2 strain [32].
Bacteria and yeast cultures were cultivated until their exponential growth phase (optical density max 1); then, 100 µL of cell suspension was taken, washed in deionised (DI) water, and added to serially diluted samples of corresponding 4-(N-alkylpyridinium)-1,4-DHPs in DI water. All 1,4-DHPs were tested in five serially diluted concentrations (10 mM, 1 mM, 0.1 mM, 0.01 mM, and 0.001 mM). Test organisms were exposed to 1,4-DHP derivatives in DI water on 96-well microplates (Corning, Corning, NY, USA) at 28 °C for 24 h without shaking in the dark. Then, a 5 µL sample was taken from each well and spotted on yeast extract, bactopeptone, dextrose broth (YPD) (yeast extract 1%, bactopeptone 2%, glucose 2% and agar 2%) plates to test the growth of yeasts and lysogeny broth (LB) (yeast extract 0.5%, bactopeptone 1%, NaCl 0.5% and agar 2%) to test the growth for bacteria. Plates were left in 30 °C for 24 h, and assessed for microbial growth.
If there were no colonies after incubation with 1,4-DHPs in the last concentration of (0.001 mM), then their boundary concentration was set to 0.0001 mM or 0.1 µM.

[5] = Determination of critical aggregation concentration (CAC) by DLS; format: physicochemical; conditions: aqueous media
Method: The critical aggregation concentrations (CAC) of 4-(N-alkylpyridinium)-1,4-DHP derivatives were determined in aqueous media using a Zetasizer Nano S90 (Malvern Panalytical Ltd., Malvern, UK) instrument with Malvern Instruments Ltd. Software according to procedure described by Topel et al. and modified by our group. Briefly, as stock solutions of tested compounds were used, samples were prepared for self-assembling experiments. All of the subsequent samples were prepared starting from the concentrated stock solution, which was subjected to a serial two-fold dilution each time with water. The intensity values of scattered light (kcps) as a function of concentration of amphiphiles were analysed. The scattering intensities detected for amphiphile concentrations below CAC have an approximately constant value corresponding to water. The intensity starts to show a linear increase with concentration at the CAC, since the amount of nanoparticles increases in the solution. The intersection of the best-fit lines drawn through the data points is the preliminary CAC value of the compounds.

[6] = MTT, 72 h, ne = no effect in the tested concentration (up to 100 μg/mL), read-out: Cytotoxicity IC50, MH-22A

Compound	IC50 at 72 h ([1]; as printed in the supplementary toxicity table, read-out: Cytotoxicity, IC50, MH-22A (supplementary table, for comparison)) [µM]	Cytotoxicity IC50, MH-22A [2]	PDI ± SD, 1 Set [3]	Zeta-Pot ± SD [3]	PDI ± SD, 2 Set [3]	Stability of nanoparticles [3]	IC50 at 72 h [1, 6] [µM]	IC50 [2] [µM]	Effect on survival of microorganisms [4]	CAC [5] [µM]
C#CCOC(=O)C1=C(C)NC(C)=C(C(=O)OCC#C)C1c1ccc[n+](CC)c1 [Compound 7]	1000	did not demonstrate any cytotoxic effect and ne	0.90 and 0.90 ± 0.03	−0.78 ± 0.26 mV	0.73 ± 0.09	weak stability				
C#CCOC(=O)C1=C(C)NC(C)=C(C(=O)OCC#C)C1c1ccc[n+](CCCCCCCCCCCC)c1 [Compound 9]			0.36 and 0.36 ± 0.08	+32.00 ± 4.81 mV	0.57 and 0.57 ± 0.05	lost their homogeneity after two weeks of storage	1 to 4	1 ± 0.2	toxic at various degrees	9.3
CCCCCCCCCCCC[n+]1cccc(C2C(C(=O)OCC)=C(C)NC(C)=C2C(=O)OCC)c1 [Compound 3]			0.14 and 0.14 ± 0.01	+57.73 ± 2.30 mV	0.17 and 0.17 ± 0.02	stable after two weeks of storage; also recorded: confirmed the stability of nanoparticles	15 ± 1		toxic at various degrees	9.3
C#CCN1C(C)=C(C(=O)OCC)C(c2ccc[n+](CCCCCCCCCCCC)c2)C(C(=O)OCC)=C1C [Compound 6]			0.15 and 0.15 ± 0.02		0.20 and 0.20 ± 0.01	stable after two weeks of storage; also recorded: confirmed the stability of nanoparticles	1 to 4	1 ± 0.2	toxic at various degrees	43.3
